Columns and labels:
[1] = system: LGG-1 autophagosome enclosure of MTR-stained paternal mitochondria in zygotes; assay: autophagosome formation on paternal mitochondria (SIM, anti-LGG-1); format: in vivo, C. elegans; conditions: males pretreated with 50 μM; for isolated paternal mitochondria: mock 16%; for paternal mitochondria fully enclosed by autophagosomes: mock 49%
Experimental: FIG. 4. Resveratrol isomers affect autophagosome formation on paternal mitochondria. a-f, Analysis of enclosure of MTR-stained paternal mitochondria by LGG-1 autophagosomes. Zygotes from the indicated crosses with MTR-stained N2 males pretreated with 0.25% ethanol (Mock)(a,b), 50 μM trans-resveratrol (c,d), or 50 μM cis-resveratrol (e,f) were labeled with an antibody to LGG-1. Images were acquired with a Nikon SIM microscope. Dashed rectangles highlight the areas enlarged and shown below ([…]). Scale bars, 2 μm (a,c,e), 0.5 μm (b,d,f). g, Quantification of four types of paternal mitochondria in zygotes that were fully enclosed, partially enclosed, and not enclosed (isolated) by the LGG-1 autophagosomes and that had initiating phagophore, respectively. The number of MTR-stained paternal mitochondria scored in each experiment was shown below the pie chart.
CPS-6 plays a key role in promoting internal breakdown of paternal mitochondria and rapid autophagosome formation on damaged paternal mitochondria following fertilization, which leads to their subsequent degradation by autophagy. We tested if resveratrol isomers affect autophagosome formation on paternal mitochondria using superresolution structured illumination microscopy (SIM). In zygotes from mating of MTR-stained and mock-treated N2 males with unstained N2 hermaphrodites, close to one half (49%) of MTR-stained paternal mitochondria were fully enclosed by autophagosomes labeled by anti-LGG-1 monoclonal antibody (FIG. 4a, b and g). The remaining paternal mitochondria either were partially enclosed by autophagosomes (23%), or had adjacent autophagosome membrane that could initiate the elongation process along the paternal mitochondrion (12%; initiating phagophore), or were isolated (16%) with no nearby autophagosome or phagophore (FIG. 4a, b and g). In zygotes from mating of MTR-stained and trans-resveratrol-treated N2 males with N2 hermaphrodites, autophagosome formation on paternal mitochondria increased dramatically, with 75% of paternal mitochondria fully enclosed and 12% of paternal mitochondria partially enclosed by autophagosomes (FIG. 4c, d and g). […] On the other hand, in zygotes from mating between unstained N2 hermaphrodites and MTR-stained and cis-resveratrol-treated N2 males, autophagosome formation on paternal mitochondria decreased substantially.

[2] = system: PME defect of rad-23 deficient animals (proteasome pathway); assay: PME microscopy assay in rad-23(tm2595) crosses; format: in vivo, C. elegans; conditions: 50 μM, 64-cell embryos (FIG. 3d)
Experimental: FIG. 3. Resveratrol isomers target CPS-6 to affect PME. a, b, Both cis-resveratrol and trans-resveratrol act paternally to affect PME. The numbers of MTR-stained paternal mitochondrial clusters in embryos at 64-cell (a) or 16-cell (b) stage from the indicated crosses were scored. N2 males or hermaphrodites were pretreated with 0.25% ethanol (Mock), 50 μM cis-resveratrol (a), or 50 μM trans-resveratrol (b) as indicated before mating. c-g, Quantification of MTR-stained paternal mitochondrial clusters in 64-cell embryos from the indicated crosses treated with 0.25% ethanol (Mock), 50 μM cis-resveratrol, and 50 μM trans-resveratrol, respectively. Alleles used are lgg-1(bp523), cps-6(tm3222) and rad-23(tm2595). Data are mean s.e.m; n≥15 embryos (a) and n≥20 embryos (b, c-g) were scored in each experiment. ***P<0.001; n.s., not significant, two-sided, unpaired t-test. h, Resveratrol isomers enhance or inhibit the nuclease activity of CPS-6 in a plasmid DNA cleavage assay. 10 ng of CPS-6 were incubated with 0.25% ethanol (Mock), 20 μM cis-resveratrol, or 20 μM trans-resveratrol in dark at 4° C. for 1.5 hours, before 1 μg of the pPD49.78 plasmid DNA were added to the reactions. After further incubation at 30° C. for 1 hour, the reactions were resolved on a 1% agarose gel. Three different forms of plasmid DNA are indicated. […]

[3] = HPLC analysis of resveratrol isomer composition / interconversion; format: physicochemical; conditions: UV irradiation 4 hours at 0° C.; for fraction converted into the other isomer on UV exposure: pure isomer, 50 μM solution
Experimental: FIG. 2. High performance liquid chromatography analysis of resveratrol isomers. a, b, e-g HPLC profiles and peak retention times detected at 303 nm of 1.0 μg commercially “pure” trans-resveratrol (a), 1.0 μg of commercially “pure” cis-resveratrol (b), 20 μL of 50 μM aged trans-resveratrol solution (e), 20 μL of 50 μM commercially “pure” trans-resveratrol solution subjected to UV irradiation for 4 hours at 0° C. (f), and 20 μL of 50 μM commercially “pure” cis-resveratrol solution subjected to UV irradiation for 4 hours at 0° C. (g). Due to the different extinction coefficients of the resveratrol isomers, standard curves of trans-resveratrol (c) and cis-resveratrol (d) were generated by analyzing a series of working solutions for each isomer. Good linear correlations (R^2≥0.9999) were acquired over the concentration range of 0-45 μM trans-resveratrol (c) and 0-110 μM cis-resveratrol (d), with the corresponding regression equations. (h) Compositions of the resveratrol isomers in the indicated samples, without or with UV irradiation (see Methods) as quantified by HPLC.
To confirm the interconversion between trans-resveratrol and cis-resveratrol and to quantitatively measure the ratio of cis- and trans-isomers in the resveratrol solution, we performed high performance liquid chromatography (HPLC) analysis, which can effectively separate trans- and cis-isomers (FIG. 2a, b). […] This ratio of trans- and cis-resveratrol accounts for the unexpected PME inhibition by the aged trans-resveratrol solution (FIG. 1a, b), because cis-resveratrol could inhibit PME (FIG. 1d) and became the dominant isomer in this aged trans-resveratrol solution (FIG. 2h).

[4] = system: cps-6(tm3222); baIn11 animals; assay: DA neuronal death in cps-6(tm3222); baIn11 animals; format: in vivo, C. elegans; conditions: 100 μM, adult day 2
Text: FIG. 8. […] In each experiment, 300 animals were scored to determine the percentage of animals losing at least one dopaminergic neuron in the head. Data are mean±s.e.m. *P<0.05; ***P<0.001, two-sided, unpaired t-test.
In addition to PME and apoptosis, EndoG was previously shown to play an important role in mediating dopaminergic (DA) neuronal death induced by expression of human α-synuclein, which is widely considered to be a major proponent of Parkinson's disease. However, the mechanism by which EndoG mediates α-synuclein-induced neurodegeneration is unclear. In a C. elegans α-synuclein-based Parkinson's Disease model, co-expression of GFP and human α-synuclein in C. elegans dopaminergic neurons under the control of the promoter of the dat-1 gene, which encodes a dopamine transporter, from an integrated transgene baIn11 (Pdat-1::gfp/Pdat-1::α-synuclein) caused DA neuronal death in 30% of adult baIn11 animals (FIG. 8a). The cps-6(tm3222) mutation blocked DA neuronal death in adult baIn11 animals (FIG. 8a), confirming that CPS-6 is important for α-synuclein-induced DA neuronal death.

[5] = system: PME defect of cps-6(tm3222) embryos; assay: PME microscopy assay in cps-6(tm3222) crosses; format: in vivo, C. elegans; conditions: 50 μM, 64-cell embryos (FIG. 3e-g)
Text: The numbers of MTR-stained paternal mitochondrial clusters were scored as in FIG. 1a. cps-6(tm3222) and lgg-1(bp523) alleles were used in the assays. Data are mean±s.e.m. n=20 embryos (b) and 15 embryos (c) in each experiment. **P<0.01; ***P<0.001; n.s., not significant, two-sided, unpaired t-test.
To investigate how these six compounds might affect PME, the present inventors performed chemical genetic analysis to analyze the PME pathways that might be affected by the compounds. The present inventors first examined whether they might affect the paternal PME pathway mediated by the mitochondrial endonuclease CPS-6, whose activity is inhibited by oxidation and protected by reducing agents.

Row | SMILES | isolated paternal mitochondria [1] [%] | paternal mitochondria fully enclosed by autophagosomes [1] [%] | effect on PME defects in rad-23 deficient animals [2] | cis-resveratrol remaining in the mixture after UV exposure [3] [%] | fraction converted into the other isomer on UV exposure [3] [%] | dopaminergic neuronal loss in cps-6(tm3222); baIn11 animals [4] | effect on PME defect in cps-6(tm3222) mutant and cps-6; lgg-1 and cps-6; rad-23 double mutants [5] | paternal mitochondria partially enclosed by autophagosomes ([1]; mock 23%) [%]
1 | Oc1ccc(/C=C\c2cc(O)cc(O)c2)cc1 [cis-resveratrol] | 31 | 35 | enhanced | 60 | 40 | did not cause any dopaminergic neuronal loss | neither cis-resveratrol nor trans-resveratrol could enhance or suppress the PME defect | –
2 | Oc1ccc(/C=C/c2cc(O)cc(O)c2)cc1 [trans-resveratrol, 3,5,4′-trihydroxy-trans-stilbene] | 7 | 75 | inhibited | – | 68.5 | did not cause any dopaminergic neuronal loss | neither cis-resveratrol nor trans-resveratrol could enhance or suppress the PME defect | 12
